Measured values taken from ChEMBL document CHEMBL1201862, “PubChem BioAssay data set” (2004).
Calls of active or inactive are those of the source. Rule as the data show it, for most assays here: actives have a measured EC50 and inactives only a lower limit.

Columns and labels:
Coagulation factor XII = molecular target: T1, Coagulation factor XII (Homo sapiens, UniProt P00748); assay: activated coagulation factor XII inhibitor potency, concentration-effect curve, cell-free (AID 716); assay type: functional
T1 sequence (P00748 whole entry): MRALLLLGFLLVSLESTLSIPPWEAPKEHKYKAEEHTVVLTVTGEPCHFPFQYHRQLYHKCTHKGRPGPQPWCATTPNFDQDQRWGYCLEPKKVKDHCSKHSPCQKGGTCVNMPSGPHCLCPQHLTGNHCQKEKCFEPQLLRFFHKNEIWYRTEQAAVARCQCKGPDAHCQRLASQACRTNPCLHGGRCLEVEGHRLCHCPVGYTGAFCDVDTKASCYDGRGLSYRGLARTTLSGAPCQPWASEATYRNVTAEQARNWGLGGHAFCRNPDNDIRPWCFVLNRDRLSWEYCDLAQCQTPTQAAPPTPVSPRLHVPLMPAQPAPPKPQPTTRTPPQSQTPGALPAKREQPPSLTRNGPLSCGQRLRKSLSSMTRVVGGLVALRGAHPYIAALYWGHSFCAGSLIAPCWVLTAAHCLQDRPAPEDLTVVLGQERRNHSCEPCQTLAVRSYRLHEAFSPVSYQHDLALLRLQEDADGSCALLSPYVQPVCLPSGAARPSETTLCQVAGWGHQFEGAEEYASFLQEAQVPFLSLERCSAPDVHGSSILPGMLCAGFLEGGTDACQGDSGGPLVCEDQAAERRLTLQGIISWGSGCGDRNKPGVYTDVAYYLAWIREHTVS

[1] = fluconazole-exposed Candida albicans growth modulators – fluorescence, retest, confirmation (AID 2467); assay type: functional, cell-based
Streptococcus = assay: GAS UMAA2166 growth inhibition – luminescence, BacTiterGlo, counter-screen for streptokinase expression inhibitor project, dose response (AID 1915); assay type: functional, organism-based;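 also: potency for reduction of bacterial viability or growth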
Beta-galactosidase = Beta-galactosidase (Escherichia coli, UniProt Q8VNN2); assay: detection-enzyme interference by beta-gal modulators – biochemical, E. coli enzyme, set 3, artefact control for CCR6 antagonist project, dose response (AID 504712); assay type: functional
Streptokinase A = molecular target: T2, Streptokinase A (Streptococcus pyogenes serotype M1, UniProt P10520); assay: viability-normalized secreted streptokinase activity reduction – plasminogen activation absorbance, OD405, dose response (AID 1914); assay type: functional, Streptococcus pyogenes M1 GAS;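 also: secreted streptokinase activity via plasminogen activation per viability signal from cell pellet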
T2 sequence (P10520 whole entry): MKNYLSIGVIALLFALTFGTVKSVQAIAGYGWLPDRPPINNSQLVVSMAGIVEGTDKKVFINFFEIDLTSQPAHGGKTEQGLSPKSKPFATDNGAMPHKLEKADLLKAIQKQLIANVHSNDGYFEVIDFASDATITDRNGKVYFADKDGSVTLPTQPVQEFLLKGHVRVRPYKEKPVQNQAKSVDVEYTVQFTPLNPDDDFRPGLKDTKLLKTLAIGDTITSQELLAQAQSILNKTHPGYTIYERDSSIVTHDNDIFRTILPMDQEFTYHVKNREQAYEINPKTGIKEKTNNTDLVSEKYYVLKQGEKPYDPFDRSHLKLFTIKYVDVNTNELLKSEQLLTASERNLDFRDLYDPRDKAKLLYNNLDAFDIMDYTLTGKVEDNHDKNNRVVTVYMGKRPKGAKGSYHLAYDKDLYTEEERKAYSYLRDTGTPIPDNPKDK

[2] = test system: Streptococcus sp. 'group A'; assay: Streptococcus pyogenes SK(-)GAS viability under kanamycin – luminescence, BacTiterGlo, confirmation, counter-screen for streptokinase expression inhibitor project, dose response (AID 1900); assay type: functional, organism-based
[3] = NIH-3T3 fibroblast cytotoxicity, dose response, cytotoxicity control, cell-based, fluorescence, Alamar Blue, secondary assay (AID 2327); assay type: functional;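 also: NIH-3T3 mouse fibroblasts cultured with fluconazole at 8 µg/mL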
[4] = alpha-synuclein stem-loop luciferase translation blockers – H4 neuroglioma cells, luminescence, confirmation (AID 1988); assay type: functional, cell-based
[5] = luciferase reporter signal suppression in cells – H4 neuroglioma cells, luminescence, dose response (AID 1990); assay type: functional, cell-based
[6] = molecular target: G-protein coupled receptor 55 (Homo sapiens, UniProt Q9Y2T6); assay: inhibition of LPI-stimulated GPR55 beta-arrestin translocation – imaging, U2OS, beta-arrestin-GFP, LPI agonist, primary screen (AID 2013); assay type: functional;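 also: antagonist potency measured as reduced agonist-driven arrestin aggregation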
[7] = Luminescence Cell-Based Dose Response HTS to Identify Inhibitors of 5'UTR Stem-Loop Driven Prion Protein mRNA Translation in H4 Neuroglioblastoma Cells. [Related pubchem assays: 1827 (Project Summary), 1813 (Primary HTS)]; assay type: functional
[8] = molecular target: G-protein coupled receptor 35 (Homo sapiens, UniProt Q9HC97); assay: inhibition of zaprinast-stimulated GPR35 beta-arrestin translocation – imaging, U2OS, beta-arrestin-GFP, zaprinast agonist, primary screen (AID 2058); assay type: functional;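 also: antagonist potency meaning inhibition of agonist-induced arrestin redistribution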
[9] = viability of HCT116 lacking mutant beta-catenin – cell-based, human colon tumor, dose response (AID 1045); assay type: functional;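 also: HCT116 colon tumor cells with beta catenin knocked out; cells exposed to compound for 60 hours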
[10] = molecular target: T3, Heat shock factor protein 1 (Mus musculus, UniProt P38532); assay: enhancement of HSF1-driven luciferase signal – cell-based, NIH3T3, luminescence, dose retest, confirmation (AID 435004); assay type: functional;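 also: stress induced by proteasome inhibitor MG132 added 30 min after compound; luciferase reporter driven by HSF1 response element in NIH3T3 cells; actives raise luminescence as potentiators of the MG132 stress response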
T3 sequence (P38532 whole entry): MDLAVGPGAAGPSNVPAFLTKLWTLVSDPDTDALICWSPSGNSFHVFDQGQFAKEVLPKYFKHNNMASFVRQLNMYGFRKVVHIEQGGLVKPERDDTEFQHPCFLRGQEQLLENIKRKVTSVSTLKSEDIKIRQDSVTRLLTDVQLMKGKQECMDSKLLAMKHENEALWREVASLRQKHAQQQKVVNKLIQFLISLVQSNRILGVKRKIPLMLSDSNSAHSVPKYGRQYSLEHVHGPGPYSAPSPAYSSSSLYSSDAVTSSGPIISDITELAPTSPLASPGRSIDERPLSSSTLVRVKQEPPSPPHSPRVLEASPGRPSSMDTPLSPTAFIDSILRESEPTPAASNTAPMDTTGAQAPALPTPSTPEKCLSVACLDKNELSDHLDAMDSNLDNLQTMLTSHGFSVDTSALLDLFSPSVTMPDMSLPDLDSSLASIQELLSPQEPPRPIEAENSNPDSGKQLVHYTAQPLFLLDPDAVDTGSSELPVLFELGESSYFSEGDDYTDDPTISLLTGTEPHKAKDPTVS

ORF 73 = ORF 73 (Human herpesvirus 8, UniProt O40947); assay: KSHV LANA DNA-binding disruption – biochemical, fluorescence polarization, cherry-picked samples, dose response (AID 504725); parameters: species or system Human gammaherpesvirus 8;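 also: fluorescence polarization of a labeled DNA duplex reporting LANA DNA binding; potency is for inhibitors that block LANA binding to the DNA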
[11] = viability of PTEN-deleted HCT116 cells – cell-based, HCT116 PTEN knockout, dose response (AID 1047); assay type: functional;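 also: HCT116 colon tumor cells with PTEN knocked out; cells exposed to compound for 60 hours before readout; potency for loss of cell viability measured by luminescence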
HeLa = assay: viability loss in HeLa cells – cell-based, 24 h, cherry-picked samples, cytotoxicity control, dose response (AID 504726); assay type: functional; conditions: Homo sapiens;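 also: potency for cytotoxicity as loss of luminescence signal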

G-protein coupled receptor 35, sequence (Q9HC97 whole entry): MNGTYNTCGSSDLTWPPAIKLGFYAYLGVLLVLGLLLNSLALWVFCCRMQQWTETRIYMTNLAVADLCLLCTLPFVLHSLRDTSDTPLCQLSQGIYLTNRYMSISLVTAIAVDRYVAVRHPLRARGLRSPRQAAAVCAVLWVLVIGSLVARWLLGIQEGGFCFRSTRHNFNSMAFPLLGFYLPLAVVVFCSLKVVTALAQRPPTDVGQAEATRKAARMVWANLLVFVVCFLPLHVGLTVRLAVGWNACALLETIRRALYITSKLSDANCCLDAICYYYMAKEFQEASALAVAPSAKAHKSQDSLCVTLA
G-protein coupled receptor 55, sequence (Q9Y2T6 whole entry): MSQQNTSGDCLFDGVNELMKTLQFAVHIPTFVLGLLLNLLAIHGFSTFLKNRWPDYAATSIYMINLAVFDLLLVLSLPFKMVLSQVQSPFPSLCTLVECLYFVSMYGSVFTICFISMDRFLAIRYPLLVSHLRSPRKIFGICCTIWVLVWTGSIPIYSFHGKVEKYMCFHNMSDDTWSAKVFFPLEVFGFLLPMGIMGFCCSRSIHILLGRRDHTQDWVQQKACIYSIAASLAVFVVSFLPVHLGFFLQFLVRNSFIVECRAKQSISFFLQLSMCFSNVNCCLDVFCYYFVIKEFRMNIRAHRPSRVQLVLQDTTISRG
Beta-galactosidase, sequence (Q8VNN2 whole entry): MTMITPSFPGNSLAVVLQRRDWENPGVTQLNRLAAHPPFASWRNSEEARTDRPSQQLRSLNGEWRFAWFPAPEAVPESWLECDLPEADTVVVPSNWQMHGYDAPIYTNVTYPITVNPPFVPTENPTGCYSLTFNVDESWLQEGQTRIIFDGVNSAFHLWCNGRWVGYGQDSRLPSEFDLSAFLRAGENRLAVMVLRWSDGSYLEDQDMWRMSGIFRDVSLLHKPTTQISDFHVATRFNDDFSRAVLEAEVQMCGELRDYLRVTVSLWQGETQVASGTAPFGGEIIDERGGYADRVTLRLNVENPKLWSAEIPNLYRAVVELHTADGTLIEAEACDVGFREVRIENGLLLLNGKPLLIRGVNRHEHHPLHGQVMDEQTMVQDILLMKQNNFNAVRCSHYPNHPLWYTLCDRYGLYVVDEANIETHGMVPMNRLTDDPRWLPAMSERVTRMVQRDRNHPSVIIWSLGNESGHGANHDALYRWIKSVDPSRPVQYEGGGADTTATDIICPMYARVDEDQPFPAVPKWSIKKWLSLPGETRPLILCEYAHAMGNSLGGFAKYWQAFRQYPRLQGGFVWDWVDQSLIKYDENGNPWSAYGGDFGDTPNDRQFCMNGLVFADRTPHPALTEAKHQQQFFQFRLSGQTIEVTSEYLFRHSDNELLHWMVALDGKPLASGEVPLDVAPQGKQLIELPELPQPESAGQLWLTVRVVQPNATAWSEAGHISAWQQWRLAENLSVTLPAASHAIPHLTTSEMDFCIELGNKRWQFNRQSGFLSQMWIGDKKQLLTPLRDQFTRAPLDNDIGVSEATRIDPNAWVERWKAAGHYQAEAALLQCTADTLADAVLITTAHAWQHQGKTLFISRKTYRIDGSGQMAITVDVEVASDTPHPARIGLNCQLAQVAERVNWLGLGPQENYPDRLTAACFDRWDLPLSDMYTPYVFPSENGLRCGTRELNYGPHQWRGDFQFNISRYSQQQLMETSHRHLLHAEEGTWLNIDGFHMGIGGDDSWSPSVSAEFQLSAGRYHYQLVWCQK
ORF 73, sequence (O40947 whole entry): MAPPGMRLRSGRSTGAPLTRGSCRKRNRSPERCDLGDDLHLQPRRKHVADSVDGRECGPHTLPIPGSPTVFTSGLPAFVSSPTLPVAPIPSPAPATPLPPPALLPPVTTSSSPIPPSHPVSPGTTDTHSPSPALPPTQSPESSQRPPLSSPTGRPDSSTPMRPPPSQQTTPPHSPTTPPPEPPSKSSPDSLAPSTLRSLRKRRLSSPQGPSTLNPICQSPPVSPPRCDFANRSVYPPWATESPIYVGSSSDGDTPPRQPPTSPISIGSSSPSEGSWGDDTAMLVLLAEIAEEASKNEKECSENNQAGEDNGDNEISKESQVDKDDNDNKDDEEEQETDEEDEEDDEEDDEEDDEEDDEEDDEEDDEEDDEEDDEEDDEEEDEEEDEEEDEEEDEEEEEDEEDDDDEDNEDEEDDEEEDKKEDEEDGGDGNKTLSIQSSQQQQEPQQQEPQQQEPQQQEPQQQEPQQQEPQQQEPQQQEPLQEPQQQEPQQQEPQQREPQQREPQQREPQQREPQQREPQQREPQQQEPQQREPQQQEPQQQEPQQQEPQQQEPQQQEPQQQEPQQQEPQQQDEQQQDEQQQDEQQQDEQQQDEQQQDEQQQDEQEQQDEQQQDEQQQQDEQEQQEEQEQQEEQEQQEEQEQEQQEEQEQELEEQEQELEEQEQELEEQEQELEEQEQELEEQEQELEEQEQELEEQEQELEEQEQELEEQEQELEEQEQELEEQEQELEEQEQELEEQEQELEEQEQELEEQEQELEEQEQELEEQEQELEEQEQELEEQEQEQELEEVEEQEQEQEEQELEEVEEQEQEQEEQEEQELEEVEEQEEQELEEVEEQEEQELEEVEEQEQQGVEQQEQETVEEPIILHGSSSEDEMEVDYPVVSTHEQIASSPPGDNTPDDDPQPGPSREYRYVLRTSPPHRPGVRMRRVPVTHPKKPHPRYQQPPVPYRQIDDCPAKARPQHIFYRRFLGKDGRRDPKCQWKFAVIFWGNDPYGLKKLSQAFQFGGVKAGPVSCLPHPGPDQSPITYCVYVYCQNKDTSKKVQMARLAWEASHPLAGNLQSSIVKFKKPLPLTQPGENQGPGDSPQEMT

Cn1c(COc2ccc(Cl)cc2)nc2ccccc2c1=O
IC50 (Coagulation factor XII): > 50 µM (inactive)

Fc1cccc2sc(Nc3nnc(-c4ccco4)o3)nc12
EC50 [1]: 2.43 µM (active)
EC50 (Streptococcus): 11.2 µM (active)
IC50 (Beta-galactosidase): > 66.6 µM (inactive)
EC50 (Streptokinase A): > 150 µM (not active)
EC50 [2]: 0.632 µM (active)
EC50 [3]: 79.4 µM (active)

Oc1ccc(/C=N/Nc2nc(-c3ccccc3F)nc3ccccc23)c(O)c1
EC50 [4]: 6.7 µM (active)
EC50 [5]: 23.2 µM (active)
IC50 [6]: 1.47 µM (active)
EC50 [7]: 18.4 µM (active)
IC50 [8]: 3.08 µM (active)

O=C(Nc1ccccc1F)C(=Cc1sc(N2CCOCC2)nc1-c1ccccc1)C(=O)Nc1ccccc1F
EC50 [9]: 9.63 µM (active)
EC50 [10]: > 260 µM (inactive)
AC50 (ORF 73): 16.4 µM (active)
EC50 [11]: 11.9 µM (active)
AC50 (HeLa): 292 µM (active)
